In patent US20050282205A1, “GLUT5 transporters expressed in cancer cells” (Xenoport, Inc., priority 2004, published 2005):

Target: T1, Human GLUT5 (Homo sapiens, UniProt P22732)
T1 construct: expressed in transfected cells; host or cells: Xenopus oocytes injected with in vitro transcribed GLUT5 cRNA
T1 sequence (P22732 1-501): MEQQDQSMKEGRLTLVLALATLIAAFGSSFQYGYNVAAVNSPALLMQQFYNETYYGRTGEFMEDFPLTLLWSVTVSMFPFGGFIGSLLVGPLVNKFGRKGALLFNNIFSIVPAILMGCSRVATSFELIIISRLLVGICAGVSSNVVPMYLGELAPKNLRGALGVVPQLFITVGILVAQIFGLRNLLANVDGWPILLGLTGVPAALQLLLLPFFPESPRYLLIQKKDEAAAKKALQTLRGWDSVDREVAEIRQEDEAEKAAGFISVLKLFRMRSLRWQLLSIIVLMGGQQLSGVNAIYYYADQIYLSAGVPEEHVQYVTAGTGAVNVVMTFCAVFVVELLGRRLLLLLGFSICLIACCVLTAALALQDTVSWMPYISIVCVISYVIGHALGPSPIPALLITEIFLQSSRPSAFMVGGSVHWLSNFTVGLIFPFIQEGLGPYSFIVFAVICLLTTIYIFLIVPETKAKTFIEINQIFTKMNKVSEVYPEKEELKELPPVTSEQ
Assay: 3H-fructose uptake in Xenopus oocytes expressing GLUT5
Format: cell-based
Conditions: Xenopus oocytes injected with GLUT5 cRNA, ND96 buffer, 3 minutes, scintillation counting (FIG. 2)
Protocol: To assess transport function of a specific transporter protein, it can be desirable to clone the cDNA and express the protein in cells that have low endogenous transport activity. Human GLUT5 was cloned by PCR, fully sequenced, and subcloned into plasmids that can be used for expression in mammalian cells or Xenopus oocytes. […] For expression in Xenopus oocytes, in vitro GLUT5 cRNA was prepared and injected into defoliculated oocytes.
Oocytes expressing GLUT5 or control oocytes not expressing GLUT5 were incubated in an oocyte ringers (ND96) buffer (90 mM NaCl, 10 mM HemiNa HEPES, 2 mM KCl, 1 mM MgCl, 1.8 mM CaCl2) containing 0.5% bovine serum albumin and 3H-fructose ([…]) for 3 minutes. Oocytes were washed and uptake of radiolabel quantified by scintillation counting.

Q: With `O=C(CO)[C@@H](O)[C@H](O)[C@H](O)CO` [^3H-fructose, fructose] as the molecule, how does the “uptake of radiolabel into oocytes expressing GLUT5 versus noninjected controls” value read?
A: higher levels of ^3H-fructose uptake than noninjected controls
